Measurements taken from PubChem BioAssay (NCI).
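Exposure lasted 48 hours, with cells grown in 96-well plates and compounds tested at five concentrations. GI50 is the concentration that inhibits growth by half. The concentration for full growth arrest is given as TGI.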

Legend:
Assay in all cases: NCI tumour cell line growth inhibition, 48 h
EKVX NSCLC = system: EKVX NSCLC
OVCAR-8 ovarian = system: OVCAR-8 ovarian
HOP-92 NSCLC = system: HOP-92 NSCLC
NCI-H226 lung = system: NCI-H226 lung
SN12C renal = system: SN12C renal
SK-MEL-28 melanoma = system: SK-MEL-28 melanoma
HCT-15 colon = system: HCT-15 colon
KM12 colon = system: KM12 colon
U251 CNS = system: U251 CNS
SF-295 CNS = system: SF-295 CNS

| Structure (SMILES) | TGI (EKVX NSCLC) [µM] | TGI (OVCAR-8 ovarian) [µM] | TGI (HOP-92 NSCLC) [µM] | TGI (NCI-H226 lung) [µM] | TGI (SN12C renal) [µM] | TGI (SK-MEL-28 melanoma) [µM] | TGI (HCT-15 colon) [µM] | TGI (KM12 colon) [µM] | TGI (U251 CNS) [µM] | TGI (SF-295 CNS) [µM] | GI50 (EKVX NSCLC) [µM] | GI50 (OVCAR-8 ovarian) [µM] | GI50 (HOP-92 NSCLC) [µM] | GI50 (NCI-H226 lung) [µM] | GI50 (SF-295 CNS) [µM] | GI50 (SN12C renal) [µM] | GI50 (SK-MEL-28 melanoma) [µM] | GI50 (HCT-15 colon) [µM] | GI50 (KM12 colon) [µM] | GI50 (U251 CNS) [µM] |
| --- | --- | --- | --- | --- | --- | --- | --- | --- | --- | --- | --- | --- | --- | --- | --- | --- | --- | --- | --- | --- |
| COC(=O)[C@H](CNC(=O)/C=C/c1ccc(OC(C)=O)c(OC(C)=O)c1)NC(=O)/C=C/c1ccc(OC(C)=O)c(OC(C)=O)c1 | > 100 | > 100 | > 100 | > 100 | > 100 | > 100 | > 100 | > 100 | > 100 |  |  |  |  |  |  |  |  |  |  |  |
| COc1ccc(C=Nc2ccc(-c3nc4ccccc4s3)cc2)cc1OC | > 100 | > 100 | 53.5 | 85.4 | > 100 | > 100 | > 100 | > 100 | > 100 | 55.5 |  |  |  |  |  |  |  |  |  |  |
| NC(Cc1ccc(O)cn1)C(=O)NC(C(=O)O)c1ccccc1 (centres undefined) | > 100 | > 100 | > 100 | > 100 | > 100 | > 100 | > 100 | > 100 | > 100 | > 100 |  |  |  |  |  |  |  |  |  |  |
| CCOC(=O)/C(Br)=C1\OC(=O)c2ccccc2-c2ccccc21 | > 100 | > 100 | 79.9 | 86.1 | > 100 | > 100 | > 100 | > 100 | > 100 | > 100 |  |  |  |  |  |  |  |  |  |  |
| COc1ccc2c(c1)CC[C@@H]1[C@@H]2CC[C@]2(C)/C(=N/OCCN3CCCC3)CC[C@@H]12 | 12.3 | 12.4 | 6.5 | 5.26 | 15.9 | 2.82 | 2.65 | 6.31 | 10.4 | 4.63 |  |  |  |  |  |  |  |  |  |  |
| CC12NC(=C(C#N)C#N)C(C#N)=C3NC(N)=C(C#N)C(=C31)Oc1ccccc12 (centres undefined) | > 100 | > 100 | > 74.1 | > 100 | > 100 | > 100 | > 100 | > 100 | > 100 | > 100 |  |  |  |  |  |  |  |  |  |  |
| Cc1cc(N(CCC#N)S(=O)(=O)c2ccccc2)ccc1C=Nc1cccc(C(=O)O)c1 | > 100 | > 100 | > 100 | > 100 | > 100 | > 100 | > 100 |  | > 100 | > 100 |  |  |  |  |  |  |  |  |  |  |
| C[C@@H]1C[C@H]2OC(=O)[C@@]3(C)CCC[C@@](C)([C@@H]23)[C@@]1(O)CCc1ccoc1 | > 100 | > 100 | > 100 | > 100 | > 100 | > 100 | > 100 | > 100 | > 100 | > 100 |  |  |  |  |  |  |  |  |  |  |
| COC(=O)C1OC(O[C@H]2CC[C@]3(C)[C@H]4CC=C5[C@@H]6CC(C)(C)CC[C@]6(C(=O)OC)CC[C@@]5(C)[C@]4(C)CC[C@H]3C2(C)C)C(O)C(O)C1O (some centres undefined) | 29 | 31.2 | 34.7 | 37 | 26.8 | 32.7 | 27.1 | 20.7 | 25.1 | 28.7 |  |  |  |  |  |  |  |  |  |  |
| Cc1ccc(S(=O)(=O)N(CC(O)COc2ccccc2)c2c(F)c(F)cc(F)c2F)cc1 (centres undefined) | 92.3 | 49.7 | 34.2 | 57.9 | 49.9 | 36.8 | 52 | 70.6 | 48.8 | 62 |  |  |  |  |  |  |  |  |  |  |
| C1=N[C@]23C(=N[C@H](N=C2NCc2ccco2)[C@]24N=CNC2=N[C@H]3N=C4NCc2ccco2)N1 | > 100 | > 100 | > 100 | > 100 | > 100 | > 100 | > 100 | > 100 | > 100 | > 100 | 89.5 | > 100 | 5.34 | 65.4 | > 100 | > 100 | > 100 | > 100 | > 100 | > 100 |
| COc1cc(C2CC(C)(N3CCOCC3)Oc3cc4c(cc32)OCO4)cc(OC)c1OC (centres undefined) | > 100 | > 100 | > 100 | > 88.4 | > 100 |  | > 100 | > 100 | > 100 |  |  |  |  |  |  |  |  |  |  |  |
| CCC(=O)OC1CCn2c1nc1c2C(=O)C(C)=C(NC(C)=O)C1=O (centres undefined) | 3.53 | 2.09 | 3.5 | 3.27 | 3.19 | 3.76 |  | 4.03 | 3.84 | 4.53 |  |  |  |  |  |  |  |  |  |  |
| CC(C)OP(=O)(OC(C)C)C(=NCCO)NNc1ccc([N+](=O)[O-])cc1 | > 100 | > 100 | > 100 | > 100 | > 100 | > 100 | > 100 | > 100 | > 100 |  |  |  |  |  |  |  |  |  |  |  |
